This passage reports IC50 results from US4906624A, “6-(((Substituted)pyridin-3-yl)alkyl)-and alkenyl)-tetrahydro-4-hydroxypyran-2-one inhibitors of cholesterol biosynthesis” (Warner-Lambert Company, priority 1988, dated 1990).

Counter-ions that a name gives are not always drawn.

The test has as its system sterol synthesis (cholesterol biosynthesis) in rat liver homogenate. The test is described as follows: CSI screen: inhibition of sterol/cholesterol synthesis (14C-acetate incorporation into nonsaponifiable lipid) by rat liver homogenate. The note with it: one-hour period, rats fed 5% cholestyramine for four days, 60 min, read-out: CSI/IC50 (concentration required for 50% inhibition of sterol synthesis). It counts as biochemical. The method, then: The ability of compounds of the present invention to inhibit the biosynthesis of cholesterol was measured by a method (designated CSI screen) which utilizes the procedure described by R. E. Dugan, et al, Archiv. Biochem. Biophys., (1972), 152, 21-27. In this method, the level of HMG-CoA enzyme activity in standard laboratory rats is increased by feeding the rats a chow diet containing 5% cholestyramine for four days, after which the rats are sacrificed.
The rat livers are homogenized, and the incorporation of […] into nonsaponifiable lipid by the rat liver homogenate is measured. The micromolar concentration of compound required for 50% inhibition of sterol synthesis over a one-hour period is measured, and expressed as an IC50 value.
On to `Cc1nccc(-c2ccccc2)c1/C=C/[C@@H]1C[C@@H](O)CC(=O)O1` (relative stereo) [Example 1, [4α,6β(E)]-Tetrahydro-4-hydroxy-6-[2-(2-methyl-4-phenyl-3-pyridinyl)ethenyl]-2H-pyran-2-one], for which the IC50 turned out to be 360 nM.

As to `Cc1cc(-c2ccccc2)c(/C=C/[C@@H]2C[C@@H](O)CC(=O)O2)c(C)n1` (relative stereo) [Example 2, [4α,6β(E)]-6-[2-(2,6-Dimethyl-4-phenyl-3-pyridinyl)ethenyl]tetrahydro-4-hydroxy-2H-pyran-2-one], the IC50 stood at 180 nM.

In the case of `Cc1cc(-c2ccccc2)c(/C=C/[C@@H](O)C[C@@H](O)CC(=O)O)c(C)n1` (relative stereo) [Example 3, [R*,S*(E)]-7-(2,6-dimethyl-4-phenyl-3-pyridinyl)-3,5-dihydroxy-6-heptenoicacid, sodium salt], the IC50 worked out at 230 nM.

Take `Cc1nccc(-c2ccccc2)c1CC[C@H]1C[C@H](O)CC(=O)O1` (relative stereo) [Example 4, trans-Tetrahydro-4-hydroxy-6-[2-(2-methyl-4-phenyl-3-pyridinyl)ethyl]-2H-pyran-2-one]: the IC50 turned out to be 420 nM.

On to `Cc1nc(C)c(/C=C/[C@@H](O)C[C@@H](O)CC(=O)O)c(-c2ccc(F)cc2)c1C#N` (relative stereo) [Example 6, [R*,S*(E)]-7-[5-Cyano-4-(4-fluorophenyl)-2,6-dimethyl-3-pyridinyl]-3,5-dihydroxy-6-heptenoic acid, sodium salt], for which the IC50 stood at 62 nM.

`Cc1cc(-c2ccc(F)cc2)c(/C=C/[C@@H]2C[C@@H](O)CC(=O)O2)c(C)n1` (relative stereo) [Example 7, [4α,6β(E)]-6-[2-[4-(4-Fluorophenyl)-2,6-dimethyl-3-pyridinyl]ethenyl]tetrahydro-4-hydroxy-2H-pyran-2-one]: the IC50 came out at 68 nM.

With `Cc1cc(-c2ccc(F)cc2)c(/C=C/[C@@H](O)C[C@@H](O)CC(=O)O)c(C)n1` (relative stereo) [Example 8, [R*,S*(E)]-7-[4-(4-Fluorophenyl)-2,6-dimethyl-3-pyridinyl]-3,5-dihydroxy-6-heptenoic acid, sodium salt], the IC50 was found to be 72 nM.

As to `COC(=O)c1c(C(C)C)nc(C)c(/C=C/[C@@H](O)C[C@@H](O)CC(=O)O)c1-c1ccc(F)cc1` (relative stereo) [Example 10, [R*,S*-(E)]-5-(6-carboxy-3,5-dihydroxy-1-hexenyl)-4-(4-fluorophenyl)-6-methyl-2-(1-methylethyl)-, 3-methyl ester, 3-pyridinecarboxylic acid, monosodium salt], the IC50 worked out at 70 nM.

Take `CCOC(=O)c1c(C)nc(C)c(/C=C/[C@@H](O)C[C@@H](O)CC(=O)O)c1-c1ccc(F)cc1` (relative stereo) [Example 12, [R*,S*-(E)]-5-(6-carboxy-3,5-dihydroxy-1-hexenyl)-4-(4-fluorophenyl)-2,6-dimethyl-, 3-ethyl ester, 3-pyridinecarboxylic acid, monosodium salt]: the IC50 amounted to 140 nM.

Take `COC(=O)c1c(C(C)C)nc(C(C)C)c(/C=C/[C@@H](O)C[C@@H](O)CC(=O)O)c1-c1ccc(F)cc1` (relative stereo) [Example 14, [R*,S*-(E)]-5-(6-carboxy-3,5-dihydroxy-1-hexenyl)-4-(4-fluorophenyl)-2,6-bis-1-methylethyl)-, methyl ester-3-pyridinecarboxylic acid, sodium salt]: the IC50 is 79 nM.

As for `CC(C)c1cc(-c2ccc(F)cc2)c(/C=C/[C@@H](O)C[C@@H](O)CC(=O)O)c(C(C)C)n1` (relative stereo) [Example 16, [R*,S*(E)]-7-[4-(4-fluorophenyl)-2,6-bis(1-methylethyl)-3-pyridinyl]-3,5-dihydroxy-6-heptenoic acid, monosodium salt], the IC50 was 30 nM.
